Publication PMC6627486, “Ipomoeassin F Binds Sec61α to Inhibit Protein Translocation” (Journal of the American Chemical Society, 2019)
Read-outs that look alike come from different tables or passages of the source.

Key:
[1] = system: MDA-MB-231; test: AlamarBlue cytotoxicity assay, MDA-MB-231; type: cell-based, human; conditions: Homo sapiens, MDA-MB-231, 72 h, read-out: Cytotoxicity (IC50)
Experimental: (§1) AlamarBlue Cytotoxicity Assay
(§2) MDA-MB-231, MCF-10A and HCT116. Viable cells were counted with a hemocytometer immediately before each experiment . Experiments were done in triplicate. First, 100 μL of MDA-MB-231 cells or MCF-10A cells at the density of 50,000 cells/mL was seeded in a 96-well plate (5,000 cells/well) and then incubated at 37 °C and 5% CO2 for 24 h. The compounds were dissolved in DMSO (dimethyl sulfoxide) to make drug stocks (10 mM). The stock solutions were diluted with the complete DMEM high glucose culture medium to make a series of gradient fresh working solutions right before each test. Subsequently, the cells were treated with 100 μL of the freshly made gradient working solution in a total volume of 200 μL/well for 72 h. After that, the media were discarded and 200 μL of the fresh complete medium containing 10% of AlamarBlue (resazurin) stock solution was added to each well. The plate was then incubated at 37 °C and 5% CO2 for another 3 h. Emission of each well at 620 nm was detected by a microplate reader (BioTek Synergy H1) at excitation 580 nm. […]
(§3) Microplate Reader. The percentage of viability compared to the negative control (DMSO-treated cells) […]
(§4) was determined. […]

[2] = AlamarBlue cytotoxicity assay, MCF-10A; type: cell-based, human; conditions: human
Experimental: as §1, §2, §3, §4

[3] = target: T1, Sec61α (Homo sapiens, UniProt P61619); test: Live cell-based biotin affinity pulldown in MDA-MB-231 cells; type: binding; conditions: live MDA-MB-231 cells
T1 construct: enabling a biotin analogue of ipomoeassin F to pull down Sec61α from live cells; endogenous in cells; host or cells: MDA-MB-231
Experimental: Activity Based Protein Profiling
MDA-MB-231 cells were seeded in five groups of 6 cm petri dishes with 3 ml DMEM high glucose culture and incubated at 37 °C and 5% CO2 until 90% confluency. […]
After 1 h incubation at 37 °C […]
and 5% CO2, the cells were harvested by scraping and washed with cold PBS for 3 times. The cells were then lysed in 100 µl of lysis buffer 1 (50 mM Hepes, pH 9.0, 100 mM NaCl, 10% glycerol, 5 mM MgCl2, 1 mM CaCl2, 0.2% NP40, 1x protease inhibitor) using ultrasound sonication. The supernatant of each group was collected after centrifugation at 21,100 g and 4 °C for 10 min, and the protein concentration was quantified with a BCA kit. 10% SDS was then added into protein solution to make a final SDS concentration of 0.4%, and the solution was incubated at 95 °C for 5 min. […]
According to the experimental needs, MDA-MB-231 cells were seeded into 3-7 groups of 15-cm tissue-culture dishes and incubated at 37 °C and 5% CO2 until 90% confluency. […] The supernatant of each group was collected after centrifugation at 4 °C and 21,100 g for 10 min, and the protein concentration was quantified with the BCA kit. […]
rotation. […] The other part was analyzed by Western blotting, in which proteins on the nitrocellulose membrane were visualized by either fluorescently labeled streptavidin or an anti-Sec61α antibody. […]

[4] = system: IL-2 production by Jurkat T cells; test: Activation-induced IL-2 production by Jurkat T cells; type: cell-based, human; conditions: 1 h preincubation then 24 h activation
Experimental: Jurkat E6.1 (ATCC TIB-152TM) T cells were cultured in RPMI GlutamaxTM (Life Technologies),
supplemented with 10% heat-inactivated fetal calf serum (FCS) (Invitrogen) and penicillin/streptomycin
(100 U/ml, 100 µg/ml). […]
FlowJo X software. […]

T1 sequence (P60468 whole entry): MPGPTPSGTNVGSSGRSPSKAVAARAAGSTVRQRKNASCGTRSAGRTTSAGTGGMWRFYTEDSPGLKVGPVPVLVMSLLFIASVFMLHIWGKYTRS
T1 sequence (P60059 whole entry, further chain): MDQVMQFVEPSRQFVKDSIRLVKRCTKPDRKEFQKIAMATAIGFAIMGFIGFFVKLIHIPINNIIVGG
T1 sequence (P61619 whole entry): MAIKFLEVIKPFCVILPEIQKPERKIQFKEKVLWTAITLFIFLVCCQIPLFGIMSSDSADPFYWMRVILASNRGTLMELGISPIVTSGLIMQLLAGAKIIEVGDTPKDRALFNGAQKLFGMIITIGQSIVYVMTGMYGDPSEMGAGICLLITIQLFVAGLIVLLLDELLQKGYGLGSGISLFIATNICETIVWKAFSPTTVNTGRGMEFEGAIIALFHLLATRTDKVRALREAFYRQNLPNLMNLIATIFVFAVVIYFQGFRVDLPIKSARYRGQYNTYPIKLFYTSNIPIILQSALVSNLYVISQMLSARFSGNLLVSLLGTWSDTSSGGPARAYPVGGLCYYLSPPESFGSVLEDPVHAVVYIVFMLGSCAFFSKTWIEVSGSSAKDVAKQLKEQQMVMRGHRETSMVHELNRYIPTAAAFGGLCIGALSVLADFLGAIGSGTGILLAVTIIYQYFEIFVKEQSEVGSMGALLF

In the case of `C/C=C(\C)C(=O)O[C@H]1[C@H](OC(=O)/C=C/c2ccc(OCc3cn(CCOCCOCCOCCNC(=O)CCCC[C@@H]4SC[C@@H]5NC(=O)N[C@@H]54)nn3)cc2)[C@@H](O)[C@@H]2O[C@H]3[C@H](O[C@@H](CCCCC)CCCCCCC(=O)CCC(=O)OC[C@H]1O2)O[C@H](C)[C@H](OC(C)=O)[C@@H]3O` [compound 5], the IC50 ([1]; AlamarBlue) is reported as 29.5 nM, the IC50 ([2]; 72 h) is reported as 21.7 nM and the “recovery of ∼40 kDa protein (Sec61α) by biotin probe in streptavidin pulldown” value ([3]; 9 at 500 nM) is reported as “no proteins were selectively enriched”.
Work on `C/C=C(\C)C(=O)O[C@@H]1[C@@H](O)[C@@H]2O[C@H]3[C@H](O[C@@H](CCCCC)CCCCCCC(=O)CCC(=O)OC[C@@H](O2)[C@H]1OC(=O)/C=C/c1ccccc1)O[C@H](C)[C@H](OC(C)=O)[C@@H]3O` [ipomoeassin F] yielded an IC50 [1] of 6.3 nM, an IC50 at 72 h [2] of 5.3 nM and an IC50 ([4]; Homo sapiens) of 9.9 nM. For the same compound, the “competition with probe 7 in pulldown of ∼40 kDa protein” value ([3]; 10 nM 7 + 50 nM ipomoeassin F, 20 nM 7 + 1 μM 8) was “outcompeted by a 5-fold excess”.
Compound `CC(=C\C=C\C(C)=C\[C@H](O)[C@@H](O)C[C@H](C)O)/C=C(C)/C=C/C(=O)O[C@H]1CCCC(=O)O[C@@H]([C@@H](C)C/C(C)=C/[C@@H](C)[C@H](O)C[C@@H](C)O)C/C=C(\C)C[C@@H]1C` [mycolactone, reference compound] has an IC50 [4] of 6 nM.
